Results from patent publication US8148531B2 (Chroma Therapeutics Ltd., priority 2005, dated 2012).
pIC50: −log10 of the molar value.

Tests used:
Aurora-A = target: T1, Aurora-A (Homo sapiens, UniProt O14965); assay: Aurora-A enzyme assay (MBP-coated Flashplate, γ-33P-ATP); type: biochemical; conditions: IC50 range class; read-out: Inhibitor Activity vs Aurora-A
T1 sequence (O14965 1-403): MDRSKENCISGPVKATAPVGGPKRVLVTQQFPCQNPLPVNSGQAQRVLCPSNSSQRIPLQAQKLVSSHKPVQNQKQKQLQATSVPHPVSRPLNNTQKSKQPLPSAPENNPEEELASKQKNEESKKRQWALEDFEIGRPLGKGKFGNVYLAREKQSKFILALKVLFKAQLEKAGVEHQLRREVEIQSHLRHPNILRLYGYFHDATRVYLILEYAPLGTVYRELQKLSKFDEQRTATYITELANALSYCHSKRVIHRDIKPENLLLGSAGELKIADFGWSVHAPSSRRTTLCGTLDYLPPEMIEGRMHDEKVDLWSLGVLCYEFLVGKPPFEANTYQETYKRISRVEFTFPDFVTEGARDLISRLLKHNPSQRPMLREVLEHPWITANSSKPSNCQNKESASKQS
Description: (§1) The ability of compounds to inhibit Aurora-A activity was measured using a simple microplate assay for Aurora-A activity, also suitable for high-throughput screening. In brief, γ-^33P-ATP and Aurora-A were incubated in a myelin basic protein (MBP)-coated Flashplate® to generate a scintillation signal. The plates were formatted to contain the inhibitor, controls, positive control (staurosporin) and blanks. After incubation at 37° C. for 1 hour and a subsequent wash procedure, the plates were read on a TopCount-NXT™.
The 384-well basic Flashplate® and the γ-^33P-ATP were obtained from PerkinElmer Life Sciences, Boston, Mass.
(§2) IC50 values were determined by non-linear regression analysis, after fitting the data point results to the equation for sigmoidal dose response with variable slope (% activity against log concentration of compound), using Graphpad Prism software.
Full experimental procedure for this assay can be found within the following reference: Sun, C Journal of Biomolecular Screening 9(5), 2004, 391.

Aurora-B = Aurora-B (Homo sapiens, UniProt Q96GD4); assay: Aurora-B enzyme assay (identical protocol as Aurora-A); type: biochemical; conditions: IC50 range class; read-out: Inhibitor Activity vs Aurora-B
Description: as §1, §2
The Aurora-B enzyme assay follows the identical protocol as Aurora-A.

U937 cell line = assay: Cell inhibition assay (SRB cell viability), U937; type: cell-based; conditions: Homo sapiens, U-937, IC50 range class, 72 h, read-out: Inhibitor Activity vs U937 cell line
Summary of the method: (§3)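 Log-phase cells seeded at 1000 cells/well, grown 24 h, then exposed to compounds (20 uM final) for 72 h. Viability read by sulphorhodamine B staining as % inhibition versus DMSO; IC50 from eight-point sigmoidal variable-slope fit.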

HCT 116 cell line = assay: Cell inhibition assay (SRB cell viability), HCT 116; type: cell-based; conditions: Homo sapiens, IC50 range class, 72 h, read-out: Inhibitor Activity vs HCT 116 cell line
Summary of the method: as §3

HUT cell line = assay: Cell inhibition assay (SRB cell viability), HUT; type: cell-based; conditions: IC50 range class, 72 h, read-out: Inhibitor Activity vs HUT cell line
Summary of the method: as §3

Aurora-B, sequence (Q96GD4 whole entry): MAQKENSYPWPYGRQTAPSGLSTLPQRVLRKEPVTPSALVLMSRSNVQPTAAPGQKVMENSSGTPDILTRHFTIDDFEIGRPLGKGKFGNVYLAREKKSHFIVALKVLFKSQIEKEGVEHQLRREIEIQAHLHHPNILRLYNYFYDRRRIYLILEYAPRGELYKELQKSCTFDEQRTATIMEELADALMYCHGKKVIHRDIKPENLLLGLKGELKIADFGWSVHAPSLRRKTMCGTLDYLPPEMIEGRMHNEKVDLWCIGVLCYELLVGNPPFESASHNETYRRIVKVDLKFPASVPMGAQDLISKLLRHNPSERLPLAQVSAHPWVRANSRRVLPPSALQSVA

Structure (SMILES) | pIC50 (Aurora-A) | pIC50 (Aurora-B) | pIC50 (U937 cell line) | pIC50 (HCT 116 cell line) | pIC50 (HUT cell line)
COc1cc2c(Oc3ccc(NC(=O)c4ccccc4)cc3)ccnc2cc1OCC[C@H](NC(=O)OC(C)(C)C)C(=O)O [Example 3] | > 5.70 | > 5.70 |  |  | 
COc1cc2c(Oc3ccc(NC(=O)c4ccccc4)cc3)ccnc2cc1OCC[C@H](N)C(=O)O [Example 4, (S)-2-Amino-4-[4-(4-benzoylamino-phenoxy)-6-methoxy-quinolin-7-yloxy]-butyric acid] | > 5.70 | > 5.70 |  |  | 
COc1cc2c(Nc3ccc(NC(=O)c4ccccc4)cc3)ccnc2cc1OCC[C@H](N)C(=O)O [Example 16, (S)-2-Amino-4-[4-(4-benzoylamino-phenylamino)-6-methoxy-quinolin-7-yloxy]-butyric acid] | < 5.30 | 5.30 to 5.70 |  |  | 
COc1cc2c(Sc3ccc(NC(=O)c4ccccc4)cc3)ccnc2cc1OCC[C@H](N)C(=O)O [Example 19, (S)-2-Amino-4-[4-(4-benzoylamino-phenylsulfanyl)-6-methoxy-quinolin-7-yloxy]-butyric acid] | > 5.70 | > 5.70 |  |  | 
COc1cc2c(Sc3ccc(NC(=O)C4CC4)cc3)ccnc2cc1OCC[C@H](N)C(=O)O [Example 21, (S)-2-Amino-4-{4-[4-(cyclopropanecarbonyl-amino)-phenylsulfanyl]-6-methoxy-quinolin-7-yloxy}-butyric acid] | 5.30 to 5.70 | 5.30 to 5.70 |  |  | 
COc1cc2c(Nc3cnc(NC(=O)c4ccccc4)nc3)ccnc2cc1OCC[C@H](N)C(=O)O [Example 26, (S)-2-Amino-4-[4-(2-benzoylamino-pyrimidin-5-ylamino)-6-methoxy-quinolin-7-yloxy]-butyric acid] | > 5.70 | 5.30 to 5.70 |  |  | 
COc1cc2c(Nc3ccc(NC(=O)c4ccccc4)cc3)c(C#N)cnc2cc1OCC[C@H](N)C(=O)OC1CCCC1 [Example 27] | < 5.30 |  | 5.30 to 6.00 | 5.30 to 6.00 | > 6.00
COc1cc2c(Nc3ccc(NC(=O)c4ccccc4)cc3)c(C#N)cnc2cc1OCC[C@H](NC(=O)OC(C)(C)C)C(=O)OC1CCCC1 [Example 28] | < 5.30 |  | > 6.00 | < 5.30 | 5.30 to 6.00
COc1cc2c(Oc3ccc(NC(=O)c4ccccc4)cc3)ncnc2cc1OCC[C@H](N)C(=O)O [Example 30, (S)-2-Amino-4-[4-(4-benzoylamino-phenoxy)-6-methoxy-quinazolin-7-yloxy]-butyric acid] | 5.30 to 5.70 | 5.30 to 5.70 |  |  | 
COc1cc2nccc(Oc3ccc(NC(=O)c4ccccc4)cc3)c2cc1OCC[C@H](N)C(=O)O [Example 36, (S)-2-Amino-4-[4-(4-benzoylamino-phenoxy)-7-methoxy-quinolin-6-yloxy]-butyric acid] | > 5.70 | 5.30 to 5.70 |  |  | 
COc1cc2c(Oc3ccc(NC(=O)c4ccccc4)cc3)ccnc2cc1OCC[C@H](NC(C)=O)C(=O)O [Example 43, (S)-2-Acetylamino-4-[4-(4-benzoylamino-phenoxy)-6-methoxy-quinolin-7-yloxy]-butyric acid] | > 5.70 | > 5.70 |  |  | 
COc1cc2c(Oc3ccc(NC(=O)c4ccc(C(F)(F)F)cc4)cc3)ccnc2cc1OCC[C@H](N)C(=O)O [Example 54, (S)-2-Amino-4-{6-methoxy-4-[4-(4-trifluoromethyl-benzoylamino)-phenoxy]-quinolin-7-yloxy}-butyric acid] | > 5.70 | > 5.70 |  |  | 
COc1ccc(C(=O)Nc2ccc(Oc3ccnc4cc(OCC[C@H](N)C(=O)O)c(OC)cc34)cc2)cc1 [Example 58, (S)-2-Amino-4-{6-methoxy-4-[4-(4-methoxy-benzoylamino)-phenoxy]-quinolin-7-yloxy}-butyric acid] | < 5.30 | > 5.70 |  |  | 
COc1cc2c(Oc3ccc(NC(=O)C4CC4)cc3)ccnc2cc1OCC[C@H](N)C(=O)O [Example 60, (S)-2-Amino-4-{4-[4-(cyclopropanecarbonyl-amino)-phenoxy]-6-methoxy-quinolin-7-yloxy}-butyric acid] | < 5.30 | < 5.30 |  |  | 
COc1cc2c(Oc3ccc(NC(=O)c4ccccc4F)cc3)ccnc2cc1OCC[C@H](N)C(=O)O [Example 62, (S)-2-Amino-4-{4-[4-(2-fluoro-benzoylamino)-phenoxy]-6-methoxy-quinolin-7-yloxy}-butyric acid] | 5.30 to 5.70 | > 5.70 |  |  | 
COc1cc2c(Oc3ccc(NC(=O)c4ccc(F)cc4)cc3)ccnc2cc1OCC[C@H](N)C(=O)O [Example 64, (S)-2-Amino-4-{4-[4-(4-fluoro-benzoylamino)-phenoxy]-6-methoxy-quinolin-7-yloxy}-butyric acid] | 5.30 to 5.70 | > 5.70 |  |  | 
COc1cc2c(Oc3ccc(NC(=O)c4ccc(Cl)cc4)cc3)ccnc2cc1OCC[C@H](N)C(=O)O [Example 67, (S)-2-Amino-4-{4-[4-(4-chloro-benzoylamino)-phenoxy]-6-methoxy-quinolin-7-yloxy}-butyric acid] | > 5.70 | > 5.70 |  |  | 
COc1cc2c(Oc3ccc(NC(=O)c4cc(C(F)(F)F)ccc4F)cc3)ccnc2cc1OCC[C@H](N)C(=O)O [Example 69, (S)-2-Amino-4-{4-[4-(2-fluoro-5-trifluoromethyl-benzoylamino)-phenoxy]-6-methoxy-quinolin-7-yloxy}-butyric acid] | 5.30 to 5.70 | > 5.70 |  |  | 
COc1cc2c(Oc3ccc(NC(=O)c4cccs4)cc3)ccnc2cc1OCC[C@H](N)C(=O)O [Example 76, (S)-2-Amino-4-(6-methoxy-4-{4-[(thiophene-2-carbonyl)-amino]-phenoxy}-quinolin-7-yloxy)-butyric acid] | > 5.70 | > 5.70 |  |  | 
COc1cc2c(Oc3ccc(C(=O)Nc4ccccc4)cc3)ccnc2cc1OCC[C@H](N)C(=O)O [Example 78, (S)-2-Amino-4-[6-methoxy-4-(4-phenylcarbamoyl-phenoxy)-quinolin-7-yloxy]-butyric acid] | 5.30 to 5.70 | 5.30 to 5.70 |  |  | 
COc1cc2c(Oc3ccc(CC(=O)Nc4ccccc4)cc3)ccnc2cc1OCC[C@H](N)C(=O)O [Example 81, (S)-2-Amino-4-[6-methoxy-4-(4-phenylcarbamoylmethyl-phenoxy)-quinolin-7-yloxy]-butyric acid] | 5.30 to 5.70 | 5.30 to 5.70 |  |  | 
COc1cc2c(Oc3ccc(CC(=O)Nc4ccccc4F)cc3)ccnc2cc1OCC[C@H](N)C(=O)O [Example 83, (S)-2-Amino-4-(4-{4-[(2-fluoro-phenylcarbamoyl)-methyl]-phenoxy}-6-methoxy-quinolin-7-yloxy)-butyric acid] | 5.30 to 5.70 | > 5.70 |  |  | 
COc1cc2c(Oc3ccc(CC(=O)Nc4cccc(F)c4)cc3)ccnc2cc1OCC[C@H](N)C(=O)O [Example 85, (S)-2-Amino-4-(4-{4-[(3-fluoro-phenylcarbamoyl)-methyl]-phenoxy}-6-methoxy-quinolin-7-yloxy)-butyric acid] | 5.30 to 5.70 | > 5.70 |  |  | 
COc1cc2c(Oc3ccc(CC(=O)Nc4ccc(F)cc4)cc3)ccnc2cc1OCC[C@H](N)C(=O)O [Example 87, (S)-2-Amino-4-(4-{4-[(4-fluoro-phenylcarbamoyl)-methyl]-phenoxy}-6-methoxy-quinolin-7-yloxy)-butyric acid] | < 5.30 | > 5.70 |  |  | 
COc1cc2c(Oc3ccc(CC(=O)Nc4ccc(F)cc4F)cc3)ccnc2cc1OCC[C@H](N)C(=O)O [Example 89, (S)-2-Amino-4-(4-{4-[(2,4-difluoro-phenylcarbamoyl)-methyl]-phenoxy}-6-methoxy-quinolin-7-yloxy)-butyric acid] | < 5.30 | > 5.70 |  |  | 
COc1ccc(NC(=O)Cc2ccc(Oc3ccnc4cc(OCC[C@H](N)C(=O)O)c(OC)cc34)cc2)cc1 [Example 91, (S)-2-Amino-4-(6-methoxy-4-{4-[(4-methoxy-phenylcarbamoyl)-methyl]-phenoxy}-quinolin-7-yloxy)-butyric acid] | 5.30 to 5.70 | > 5.70 |  |  | 
COc1cc2c(Oc3ccc(NC(=O)Nc4ccc(C(F)(F)F)cc4)cc3)ccnc2cc1OCC[C@H](N)C(=O)O [Example 94, (S)-2-Amino-4-(6-methoxy-4-{4-[3-(4-trifluoromethyl-phenyl)-ureido]-phenoxy}-quinolin-7-yloxy)-butyric acid] | > 5.70 | > 5.70 |  |  | 
